Results on 1 compound are retold here after patent US10519132B2, “Isocorydine derivatives, preparation method and use thereof” (Lanzhou Institute of Chemical Physics, Chinese Academy of …, priority 2017, dated 2019).

Converted amounts (≈) assume the structure as drawn. Where two headings read alike, the source gives them in different places.

One test relates to human brain glioma U251. As to the kind of experiment: MTT growth inhibition on U251. The test is classed as cell-based. Conditions: U-251, after 48 h of action.
A further test relates to liver cancer cells. As to the kind of experiment: MTT growth inhibition on liver cancer cells. Conditions: Homo sapiens. The test is classed as cell-based.
In test [1] the test system is human liver cancer cell strain SMMC-7721. Description: MTT growth inhibition on SMMC-7721. Conditions: concentration range of 10-40 μg/mL, one of 6 types of tumor cells. The format is cell-based.
Method: (§1) By using an MTT method, a sample solution to be tested was added to a 96-well plate in which cancer cells were adherently grown. Culturing was performed for a certain period, and the growth inhibition effect of a compound on a human cancer cell strain for primary screening was measured to determine the anti-cancer activity of the compound.
(§2) Cell culture: A cell incubator was set to conditions of 37° C., 5% CO2, and a saturated humidity, cells were cultured under these conditions, and the cell medium was a DMEM complete medium, wherein 10% fetal bovine serum, 100 IU/mL penicillin, and 100 μg/mL streptomycin were comprised.
(§3) The single cell suspension was diluted to 5×10^3/100 μL after counting, inoculated on a 96-well cell culture plate (triplicate), and adherently cultured overnight; […]
(§4) The culture liquid was discarded, 100 μL of DMSO was added, low-speed oscillation was performed for 10 min by placing on a shaker, and the spectrophotometric value of each well was measured at a wavelength of 490 nm by using a microplate reader. Statistical analysis was performed and tumor cell growth inhibition rate was calculated according to the equation: Growth inhibition rate=(OD value of control group−OD value of experimental group)/OD value of control group.
Test [2] relates to human cervical cancer Hela cell strains. As to the kind of experiment: MTT growth inhibition on Hela.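 Also: compound exposure of 24, 48 or 72 h in DMEM with 10% fetal bovine serum, MTT absorbance read at 490 nm, inhibition calculated relative to control group OD.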 The settings on record: Homo sapiens, HeLa.
Method: as §1, §2
(§5) The single cell suspension was diluted to 5×10^3/100 μL after counting, inoculated on a 96-well cell culture plate (triplicate), and adherently cultured overnight;
(§6) After 24 h of adhesion, the complete medium was discarded, 100 μL-sample-solutions to be tested having different concentrations were sequentially added to the 96-well plate according to a concentration gradient, and incubations were continued for 24 h, 48 h, and 72 h;
(§7) The culture liquid was discarded, a 0.5 mg/mL MTT diluted working liquid was added, and incubation was performed for 4 h by placing in an incubator;
as §4
(§8) Culturing was performed for a certain period, the growth inhibition effect of a compound on 3 human cancer cell strains for primary screening was measured to determine the anti-cancer activity of the compound, and a growth inhibition curve was plotted.
Test [3] relates to C-Myc, Ki-67, CylinD1, β-Catenin protein. As to the kind of experiment: Western blotting, protein expression in HepG2 cells. The test is classed as cell-based, human. Conditions: sorafenib 4 μg/mL, high FICD dosage 20 μg/mL, combination 4 μg/mL sorafenib+10 μg/mL FICD. The procedure:
Method: Gel electrophoresis of protein samples. Gel formulation: All components were added to a small beaker according to a formulation of a separation gel, uniformly mixed with slightly shaking to prevent the generation of bubbles, quickly applied to a seam of a glass plate with a 1 mL pipette, and then blocked with double distilled water to prevent oxidation. After 30 min, the separation gel solidified, the double distilled water thereof was poured off, waster was suctioned with a filter paper, a 5% concentration gel was formulated, TEMED was finally loaded onto the glass plate, and a 1.0 mm comb was inserted into the concentration gel and placed at room temperature for 30 min. The comb was slightly, vertically, and carefully pulled up, various groups of 20 μL protein samples were pipetted with a microsyringe, an equal volume of a loading buffer and an equal volume of a loading buffer containing 3 μL of Marker were separately added to a loading well, an electrophoresis instrument was switched on after electrodes were plugged, gels were run at 75V for 30 min, and the voltage was changed to 120V and gels were run for 2 h when bromophenol blue reaches the separation gel. Membrane transfer: A PVDF membrane having a suitable size was cut according to the size of the gel, placed in a methanol solution for 1 min, lifted, and placed and soaked together with a well cut filter paper in a previously precooled membrane transfer buffer. A sponge pad, three layers of filter paper, a gel, three layers of filter paper, and a sponge pad, in this order from top to bottom, were placed in a membrane transfer tank, and a precooled membrane transfer buffer was then added. Several ice bags were placed circumferentially to prevent an excessively hot external environment, and electrodes were plugged and membrane transfer was performed at a constant current of […] for 2.5 hours. Blocking and incubation of antibodies: A transferred membrane was cut into desired bands, which were placed in a blocking solution of 5% skim milk powder, placed on a shaker, and shaken at room temperature at a low speed for 1 h. A primary antibody was diluted with the blocking solution, a corresponding antibody was pipetted and added to a zip lock bag, the PVDF membrane was then placed in the antibody dilution, bubbles in the zip lock bag were evacuated, and the zip lock bag was sealed and placed in a refrigerator at 4° C. overnight. The membrane was withdrawn from the zip lock bag on the second day, and placed in a clean dish. A TBST solution was added and washed 3 times on a low-speed shaker, 10 min for each time. […]

Test [4] deals with HepG2 cells. As to the kind of experiment: Apoptosis induction, Annexin V and PI double-staining, flow cytometry. The format is cell-based, human. Conditions: HepG2, 24 h; sorafenib 4 μg/mL; combination 4 μg/mL sorafenib+5 μg/mL FICD. As for the experimental part: Different concentrations of FICD were added on the second day, culture was continued for 24 h, cells were collected and washed 3 times with precooled PBS, and adherent cells were digested with trypsin free of EDTA. The solutions were combined, centrifuged, and washed 3 times again with precooled PBS. 400 μL of solution containing 5 μL of V-FITC and 10 μL of PI was added, incubation was performed at room temperature under protection from light, and detection was performed by flowcytometry after 30 min.

Test [5] has as its system human gastric cancer cell strain MGC-803. Description: MTT growth inhibition on MGC-803.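 Also: adherent cells exposed to compound over a concentration gradient for 24, 48 and 72 h, MTT absorbance at 490 nm, inhibition relative to untreated control wells.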 The settings on record: Homo sapiens.
Method: as §1, §2, §5, §6, §7, §4, §8
Test [6] relates to HepG2 cells. As to the kind of experiment: Cell cycle distribution by flow cytometry. The test is classed as cell-based, human. Conditions: sorafenib 5 μg/mL, FICD 10 μg/mL, combination 5 μg/mL FICD+10 μg/mL sorafenib. As for the experimental part:
1 mL of 70% precooled (−20° C.) ethanol was added to the cell precipitate, homogenized by pipetting, and fixed at 4° C. overnight. On the second day, HepG2 cells was collected by centrifugation, 2 mL of precooled PBS was added for washing 3 times, 500 μL of PBS containing 50 μg/mL […] (PI) and 100 μg/mL RNaseA was added, and incubation was performed at 4° C. under protection from light for 30 min. Detection was performed on a flow cytometer, and results can be seen in FIG. 9 and FIG. 10.
(In general: In flow cytometry, cells or beads pass a laser one at a time.)

Test [7] concerns human liver cancer cell strain HepG2. As to the kind of experiment: MTT growth inhibition on HepG2.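 Also: adherent cells in 96-well plates treated with a concentration series for 24, 48 or 72 h, MTT absorbance read at 490 nm, inhibition computed relative to untreated control wells.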 The format is cell-based. The settings on record: Homo sapiens, read-out: IC50 HepG2.
Method: as §1, §2, §5, §6, §7, §4, §8

Method for human brain glioma U251: as §1, §2, §3, §4
Method for liver cancer cells: as §1, §2, §3, §4

On to `COc1cc(NC(=O)Nc2ccc(Cl)c(C(F)(F)F)c2)c2c(c1O)-c1c(OC)c(OC)cc3c1C(C2)N(C)CC3` (stereo not drawn) [Compound 1], for which the IC50 is 16.8 ± 0.28 µg/mL (≈ 29.1 µM) in the test on human brain glioma U251; 10 to 20 µg/mL (≈ 17.3 to 34.6 µM) in the test with liver cancer cells; 18.6 ± 0.29 µg/mL in test [2] (48 h, read-out: IC50 Hela, after 48 h of action); 26.5 µM in test [2] (read-out: IC50 HeLa, Table 1, MTT); 26.5 µM in test [2] (read-out: IC50 Hela, Table 2, MTT); 15.6 ± 2.4 µg/mL in [5] (MGC-803, 48 h, read-out: IC50 MGC-803, after 48 h of action). Further, the IC50 in test [5] (MGC-803, read-out: IC50 MGC-803, Table 1, MTT) is 16.6 µM; in test [5] (MGC-803, read-out: IC50 MGC-803, Table 2, MTT), 16.6 µM; in test [7] (HepG2, 48 h, after 48 h of action), 10.1 ± 1.2 µg/mL; in [7] (HepG2, Table 1, MTT), 17.2 µM; in test [7] (HepG2, Table 2, MTT), 17.2 µM. Moreover, in test [1], the growth inhibition activity result is on record as “certain growth inhibition activities”. Moreover, the “expressions of C-Myc, Ki-67, CylinD1 and β-Catenin protein compared to the blank group” value in test [3] is recorded as “significantly reduced”. The apoptosis rate in the test on HepG2 cells [4] is 11.93%. In addition, the “cell cycle distribution compared to the blank control group” value with HepG2 cells [6] is “cells significantly increased in the G2/M phase and decreased in the G0/G1 phase”.

As usually defined, the IC50 is the concentration that gives 50% inhibition.
